Test results reported in ChEMBL document CHEMBL1129829, “Synthesis and biological activity of P2P4 azapeptidomimetic P1-argininal and P1-ketoargininamide derivatives: a novel class of serine protease inhibitors” (Bioorg Med Chem Lett, 1997).

Tests used:
Prothrombin [1] = target: T1, Prothrombin (Homo sapiens, UniProt P00734); assay: Compound was evaluated for its 50 percent inhibitory concentration against human thrombin factor (FIIa)
Coagulation factor VII [2] = target: T2, Coagulation factor VII (Homo sapiens, UniProt P08709); assay: Compound was evaluated for its 50 percent inhibitory concentration against human Coagulation factor VII
T2 sequence (P08709 whole entry): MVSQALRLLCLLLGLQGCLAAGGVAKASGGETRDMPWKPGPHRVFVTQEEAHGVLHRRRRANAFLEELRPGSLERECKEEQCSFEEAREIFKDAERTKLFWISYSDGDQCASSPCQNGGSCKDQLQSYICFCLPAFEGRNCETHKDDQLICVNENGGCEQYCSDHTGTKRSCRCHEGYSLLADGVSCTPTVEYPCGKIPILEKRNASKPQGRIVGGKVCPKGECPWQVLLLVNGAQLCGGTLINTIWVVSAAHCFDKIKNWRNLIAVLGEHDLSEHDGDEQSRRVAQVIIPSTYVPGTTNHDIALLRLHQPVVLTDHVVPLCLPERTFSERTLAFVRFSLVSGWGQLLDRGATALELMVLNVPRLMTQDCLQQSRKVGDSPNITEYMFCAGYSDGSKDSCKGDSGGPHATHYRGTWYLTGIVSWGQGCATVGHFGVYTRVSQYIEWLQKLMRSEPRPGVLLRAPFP

Coagulation factor X [3] = target: T3, Coagulation factor X (Homo sapiens, UniProt P00742)
Serine protease 1 [4] = target: T4, Serine protease 1 (Bos taurus, UniProt P00760); assay: Compound was evaluated for its 50% inhibitory concentration against cow protease enzyme trypsin
T4 sequence (P00760 whole entry): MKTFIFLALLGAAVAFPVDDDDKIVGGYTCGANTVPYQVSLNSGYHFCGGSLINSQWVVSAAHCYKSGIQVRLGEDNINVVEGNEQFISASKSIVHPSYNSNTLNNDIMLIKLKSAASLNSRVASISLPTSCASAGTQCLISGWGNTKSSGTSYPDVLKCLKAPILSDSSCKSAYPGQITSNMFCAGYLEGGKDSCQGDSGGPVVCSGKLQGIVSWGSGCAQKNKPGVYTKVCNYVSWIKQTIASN

Plasminogen [5] = target: T5, Plasminogen (Homo sapiens, UniProt P00747)
Plasminogen [6] = target: T5, Plasminogen; assay: Compound was evaluated for its 50% inhibitory concentration against human protease enzyme plasmin; Inactive
Serine protease 1 [7] = target: Serine protease 1 (Homo sapiens, UniProt P07477); assay: Compound was evaluated for its 50% inhibitory concentration against human protease enzyme trypsin
Coagulation factor VII [8] = target: T2, Coagulation factor VII; assay: Compound was evaluated for its 50 percent inhibitory concentration against human Coagulation factor VII; inactive
Prothrombin [9] = target: T1, Prothrombin
Plasminogen [10] = target: T5, Plasminogen; assay: Compound was evaluated for its 50% inhibitory concentration against human protease enzyme plasmin
Coagulation factor VII [11] = target: T2, Coagulation factor VII; assay: Compound was evaluated for its 50 percent inhibitory concentration against human Coagulation factor VII: Inactive
Coagulation factor X [12] = target: T3, Coagulation factor X; assay: Compound was evaluated for its 50% inhibitory concentration against Coagulation factor X

T3 sequence (P00742 41-179 limits assumed): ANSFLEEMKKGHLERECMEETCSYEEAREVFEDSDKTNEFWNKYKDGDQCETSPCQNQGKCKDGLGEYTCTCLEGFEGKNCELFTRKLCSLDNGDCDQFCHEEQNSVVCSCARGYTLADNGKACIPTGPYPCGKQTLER
T3 sequence (P00742 235-488 limits assumed): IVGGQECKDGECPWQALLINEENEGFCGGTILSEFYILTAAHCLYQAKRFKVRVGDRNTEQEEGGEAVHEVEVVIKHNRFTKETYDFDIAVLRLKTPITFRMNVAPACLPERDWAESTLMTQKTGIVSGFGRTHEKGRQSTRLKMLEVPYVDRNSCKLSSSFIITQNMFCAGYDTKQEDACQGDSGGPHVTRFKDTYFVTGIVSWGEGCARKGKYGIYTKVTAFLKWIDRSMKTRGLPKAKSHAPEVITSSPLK
T5 sequence (P00747 97-580 limits assumed): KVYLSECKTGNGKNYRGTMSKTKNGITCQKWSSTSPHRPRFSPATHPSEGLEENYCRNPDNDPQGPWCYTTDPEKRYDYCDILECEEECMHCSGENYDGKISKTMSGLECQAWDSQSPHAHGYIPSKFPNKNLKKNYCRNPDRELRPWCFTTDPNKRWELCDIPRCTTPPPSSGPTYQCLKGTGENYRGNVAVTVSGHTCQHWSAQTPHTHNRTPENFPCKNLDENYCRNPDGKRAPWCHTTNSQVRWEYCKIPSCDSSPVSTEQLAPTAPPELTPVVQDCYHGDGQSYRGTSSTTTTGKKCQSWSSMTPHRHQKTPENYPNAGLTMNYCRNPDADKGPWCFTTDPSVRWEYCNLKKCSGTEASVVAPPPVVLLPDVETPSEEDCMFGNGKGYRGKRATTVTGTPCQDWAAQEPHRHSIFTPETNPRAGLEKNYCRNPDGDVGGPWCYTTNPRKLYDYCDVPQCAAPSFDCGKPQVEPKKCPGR
T5 sequence (P00747 581-810 limits assumed): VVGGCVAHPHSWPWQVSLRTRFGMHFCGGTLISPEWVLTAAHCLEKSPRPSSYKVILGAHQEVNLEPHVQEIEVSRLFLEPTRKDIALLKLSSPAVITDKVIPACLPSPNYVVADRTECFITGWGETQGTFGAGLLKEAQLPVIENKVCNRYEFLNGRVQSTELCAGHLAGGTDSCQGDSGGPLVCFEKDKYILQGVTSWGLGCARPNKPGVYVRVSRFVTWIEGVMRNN
Chain of Serine protease 1 (Homo sapiens, UniProt P07477) (P07477 whole entry): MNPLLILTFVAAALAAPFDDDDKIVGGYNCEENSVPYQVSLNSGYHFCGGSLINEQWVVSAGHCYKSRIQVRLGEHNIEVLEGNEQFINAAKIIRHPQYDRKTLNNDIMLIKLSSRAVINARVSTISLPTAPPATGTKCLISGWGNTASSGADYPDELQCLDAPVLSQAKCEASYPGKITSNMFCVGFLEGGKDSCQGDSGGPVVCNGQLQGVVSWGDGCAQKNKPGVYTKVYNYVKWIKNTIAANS

IC50 (Prothrombin [1]) [µM] | IC50 (Coagulation factor VII [2]) [µM] | IC50 (Coagulation factor X [3]) | IC50 (Serine protease 1 [4]) [µM] | IC50 (Plasminogen [5]) | IC50 (Plasminogen [6]) | IC50 (Serine protease 1 [7]) [µM] | IC50 (Coagulation factor VII [8]) | IC50 (Prothrombin [9]) | IC50 (Plasminogen [10]) [µM] | IC50 (Coagulation factor VII [11]) | IC50 (Coagulation factor X [12]) [µM] | Compound
22.1 | > 25 | Not Active | 0.59 | Not Active | – | – | – | – | – | – | – | CCOC(=O)CN(NC(C)=O)C(=O)[C@@H]1CCCC[C@H]1C(=O)N[C@H](C=O)CCCN=C(N)N
13.2 | – | Not Active | – | – | Not Active | 22.2 | Not Active | – | – | – | – | CCCC(CCC)C(=O)NN(CC(=O)OCC)C(=O)[C@@H]1CCCC[C@H]1C(=O)N[C@@H](CCCN=C(N)N)C(=O)C(=O)NCCc1ccccc1
– | 18 | Not Active | 1.31 | Not Active | – | – | – | Not Active | – | – | – | COC(=O)CN(NC(=O)OC(C)(C)C)C(=O)[C@@H]1CCCC[C@H]1C(=O)N[C@@H](CCCN=C(N)N)C(=O)C(=O)NCCc1ccccc1
> 2.5 | 25 | Not Active | 0.25 | Not Active | – | – | – | – | – | – | – | CCOC(=O)CN(NC(=O)OC(C)(C)C)C(=O)[C@@H]1CCCC[C@H]1C(=O)N[C@@H](CCCN=C(N)N)C(=O)C(=O)NCCc1ccccc1
12.8 | > 25 | Not Active | – | Not Active | – | 5.7 | – | – | – | – | – | CC(=O)NN(CCCc1ccccc1)C(=O)[C@@H]1CCCC[C@H]1C(=O)N[C@H](C=O)CCCN=C(N)N
– | > 25 | Not Active | > 2.5 | Not Active | – | – | – | Not Active | – | – | – | CC(=O)NN(Cc1ccccc1)C(=O)[C@@H]1CCCC[C@H]1C(=O)N[C@H](C=O)CCCN=C(N)N
3.2 | 8.5 | Not Active | 0.108 | – | – | – | – | – | > 2.5 | – | – | CC(=O)NN(Cc1ccccc1)C(=O)[C@@H]1CCCC[C@H]1C(=O)N[C@@H](CCCN=C(N)N)C(=O)C(=O)NCCc1ccccc1
> 2.5 | > 25 | Not Active | > 2.5 | Not Active | – | – | – | – | – | – | – | CC(C)(C)OC(=O)NN(Cc1ccccc1)C(=O)[C@@H]1CCCC[C@H]1C(=O)N[C@H](C=O)CCCN=C(N)N
0.88 | – | Not Active | – | Not Active | – | 0.25 | – | – | – | Not Active | – | CC(C)(C)OC(=O)NN(Cc1ccccc1)C(=O)[C@@H]1CCCC[C@H]1C(=O)N[C@@H](CCCN=C(N)N)C(=O)C(=O)NCCc1ccccc1
– | 4.3 | – | 0.156 | – | – | – | – | – | > 2.5 | – | > 2.5 | CC(=O)N[C@H](Cc1ccccc1)C(=O)N1CCC[C@H]1C(=O)N[C@H]1CCCN(C(=N)N)C1O (some centres undefined)
0.0023 | 0.706 | – | 0.00076 | – | – | – | – | – | 2.71 | – | 0.698 | CC(C)(C)OC(=O)N[C@@H](CC(=O)O)C(=O)N1CCCC1C(=O)N[C@@H](CCCN=C(N)N)C(=O)C(=O)NCCc1ccccc1 (some centres undefined)
> 2.5 | 22 | Not Active | 0.25 | Not Active | – | – | – | – | – | – | – | CCOC(=O)CN(NC(=O)OC(C)(C)C)C(=O)[C@@H]1CCCC[C@H]1C(=O)N[C@H](C=O)CCCN=C(N)N
